According to ChEMBL document CHEMBL1201862, “PubChem BioAssay data set” (2004):
Activity calls are given as the source filed them.

Experiments:
[1] = target: T1, G-protein coupled receptor 35 (Homo sapiens, UniProt Q9HC97); experiment: SAR analysis of Antagonists of the GPR35 Receptor using an Image-Based Assay - Set 3. [Related pubchem assays (depositor defined):AID2013, AID2026]; assay type: functional
[2] = target: T1, G-protein coupled receptor 35; experiment: SAR analysis of Agonists of the GPR35 Receptor using an Image-Based Assay - Set 2. [Related pubchem assays (depositor defined):AID2013, AID2026]; assay type: functional
[3] = target: T2, G-protein coupled receptor 55 (Homo sapiens, UniProt Q9Y2T6); experiment: GPR55 antagonist potency of analogs, SAR follow-up, imaging, U2OS, beta-arrestin-GFP, LPI agonist, set 2 (AID 2820); assay type: functional
T2 sequence (Q9Y2T6 whole entry): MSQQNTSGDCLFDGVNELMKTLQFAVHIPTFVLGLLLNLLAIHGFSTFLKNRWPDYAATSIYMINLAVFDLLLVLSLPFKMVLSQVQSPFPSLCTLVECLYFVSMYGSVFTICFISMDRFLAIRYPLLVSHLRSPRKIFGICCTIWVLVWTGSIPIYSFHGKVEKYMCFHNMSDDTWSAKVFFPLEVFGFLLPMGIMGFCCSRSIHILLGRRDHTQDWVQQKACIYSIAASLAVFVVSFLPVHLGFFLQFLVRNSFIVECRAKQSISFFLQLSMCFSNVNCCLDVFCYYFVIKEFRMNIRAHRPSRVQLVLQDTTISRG

Cannabinoid receptor 1 [4] = target: T3, Cannabinoid receptor 1 (Homo sapiens, UniProt P21554); experiment: SAR analysis of agonists of the Cannabinoid Receptor 1 using an Image-Based Assay - Set 2. [Related pubchem assays (depositor defined):AID2013, AID2026]; assay type: functional
T3 sequence (P21554 whole entry): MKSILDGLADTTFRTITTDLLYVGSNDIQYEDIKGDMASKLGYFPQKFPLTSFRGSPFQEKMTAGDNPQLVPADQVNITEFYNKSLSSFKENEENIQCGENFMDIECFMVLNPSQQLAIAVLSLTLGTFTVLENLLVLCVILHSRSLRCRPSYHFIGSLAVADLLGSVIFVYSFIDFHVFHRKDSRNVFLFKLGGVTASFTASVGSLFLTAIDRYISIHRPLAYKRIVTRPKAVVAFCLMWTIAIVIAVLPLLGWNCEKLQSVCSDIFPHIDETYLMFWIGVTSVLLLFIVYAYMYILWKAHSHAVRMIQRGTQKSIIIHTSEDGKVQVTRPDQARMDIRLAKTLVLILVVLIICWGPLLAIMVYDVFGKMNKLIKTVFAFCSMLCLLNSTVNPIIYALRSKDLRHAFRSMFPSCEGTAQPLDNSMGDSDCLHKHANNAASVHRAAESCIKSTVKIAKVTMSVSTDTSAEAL

Cannabinoid receptor 1 [5] = target: T3, Cannabinoid receptor 1; experiment: SAR analysis of antagonists of the Cannabinoid Receptor 1 using an Image-Based Assay - Set 2. [Related pubchem assays (depositor defined):AID2013, AID2026]; assay type: functional
[6] = A Cell Based Secondary Assay To Explore Cytotoxicity of Compounds that Sensitize Mycobacterium Tuberculosis to Beta-Lactam Antibiotics.; assay type: functional
[7] = growth suppression of beta-catenin-knockout colon cells, dose response, cell-based, HCT116, human colon tumor (AID 1045); assay type: functional;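 also: HCT116 colon tumor cells with beta catenin knocked out; cells exposed to compound for 60 hours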
Cytochrome P450 2C9 = Cytochrome P450 2C9 (Homo sapiens, UniProt P11712)
Cytochrome P450 2C9, sequence (P11712 whole entry): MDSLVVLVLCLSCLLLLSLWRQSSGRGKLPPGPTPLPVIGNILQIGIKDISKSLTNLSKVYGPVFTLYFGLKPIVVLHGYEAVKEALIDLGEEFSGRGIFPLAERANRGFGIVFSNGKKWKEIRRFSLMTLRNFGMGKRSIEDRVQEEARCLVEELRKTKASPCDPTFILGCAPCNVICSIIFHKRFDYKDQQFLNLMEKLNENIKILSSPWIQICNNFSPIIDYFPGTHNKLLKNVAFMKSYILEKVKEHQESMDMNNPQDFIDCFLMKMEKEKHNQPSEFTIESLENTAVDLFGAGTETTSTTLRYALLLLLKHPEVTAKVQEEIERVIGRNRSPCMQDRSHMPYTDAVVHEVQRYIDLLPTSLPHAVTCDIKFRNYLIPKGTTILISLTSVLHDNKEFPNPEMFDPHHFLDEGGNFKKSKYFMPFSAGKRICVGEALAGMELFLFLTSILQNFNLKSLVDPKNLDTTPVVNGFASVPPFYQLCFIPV

Cannabinoid receptor 2 [8] = target: T4, Cannabinoid receptor 2 (Homo sapiens, UniProt P34972); experiment: SAR analysis of antagonists of the Cannabinoid Receptor 2 using an Image-Based Assay. [Related pubchem assays (depositor defined):AID2013, AID2026]; assay type: functional
T4 sequence (P34972 whole entry): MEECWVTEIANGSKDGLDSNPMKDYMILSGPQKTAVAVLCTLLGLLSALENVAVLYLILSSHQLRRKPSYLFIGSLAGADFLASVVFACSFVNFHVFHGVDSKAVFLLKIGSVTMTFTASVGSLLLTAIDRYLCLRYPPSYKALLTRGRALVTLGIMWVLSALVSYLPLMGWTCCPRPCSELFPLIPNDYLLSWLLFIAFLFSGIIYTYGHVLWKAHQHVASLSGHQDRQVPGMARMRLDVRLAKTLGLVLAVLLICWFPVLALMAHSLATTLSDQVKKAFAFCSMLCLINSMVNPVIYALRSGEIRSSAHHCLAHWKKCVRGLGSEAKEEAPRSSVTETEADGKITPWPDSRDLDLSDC

[9] = target: T2, G-protein coupled receptor 55; experiment: GPR55 antagonists blocking LPI-driven arrestin recruitment, primary screen, imaging, U2OS, beta-arrestin-GFP, LPI agonist (AID 2013); assay type: functional;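 also: antagonist potency measured as reduced agonist-driven arrestin aggregation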
[10] = cytotoxicity toward NIH3T3 fibroblasts, dose response, counter-screen, cell-based, ATP luminescence, mouse fibroblasts (AID 2010); assay type: functional;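 also: cells exposed to compound for about 90 hours before reading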
[11] = growth suppression of PTEN-null colon cells, dose response, cell-based, HCT116 PTEN knockout (AID 1047); assay type: functional;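 also: HCT116 colon tumor cells with PTEN knocked out; cells exposed to compound for 60 hours before readout; potency for loss of cell viability measured by luminescence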
Cannabinoid receptor 2 [12] = target: T4, Cannabinoid receptor 2; experiment: SAR analysis of agonists of the Cannabinoid Receptor 2 using an Image-Based Assay. [Related pubchem assays (depositor defined):AID2013, AID2026]; assay type: functional
[13] = inhibitors of intracellular T. cruzi replication, confirmation, NIH3T3 host cells, beta-gal luminescence (AID 2044); assay type: functional, cell-based;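 also: intracellular parasites grown in NIH/3T3 mouse fibroblasts as host cells; luminescent beta-galactosidase reporter signal from transgenic T. cruzi replicating inside host cells; inhibitors lower the luminescence signal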
[14] = test system: Streptococcus sp. 'group A'; experiment: growth inhibition of control SK(-) GAS strain, dose response, counter-screen for streptokinase expression inhibitor project, luminescence, kanamycin, BacTiterGlo, confirmation (AID 1900); assay type: functional, organism-based
[15] = target: T5, Kappa-type opioid receptor (Homo sapiens, UniProt P41145); assay type: functional
T5 sequence (P41145 whole entry): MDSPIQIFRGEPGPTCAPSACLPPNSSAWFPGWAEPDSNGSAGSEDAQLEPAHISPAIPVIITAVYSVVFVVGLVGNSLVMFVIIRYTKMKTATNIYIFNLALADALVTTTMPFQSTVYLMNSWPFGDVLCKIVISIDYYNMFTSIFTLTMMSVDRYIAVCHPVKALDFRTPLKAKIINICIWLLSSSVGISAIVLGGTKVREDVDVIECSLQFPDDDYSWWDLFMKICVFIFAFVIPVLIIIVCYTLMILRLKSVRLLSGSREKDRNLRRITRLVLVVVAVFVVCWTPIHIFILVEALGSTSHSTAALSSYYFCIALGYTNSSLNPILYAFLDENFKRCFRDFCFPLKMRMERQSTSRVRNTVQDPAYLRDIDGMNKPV

[16] = target: T6, Delta-type opioid receptor (Homo sapiens, UniProt P41143); experiment: HTS Image-Based Screen for Antagonists of the DOR Receptor. [Related pubchem assays (depositor defined):AID1777, AID1785, AID1786, AID2133]; assay type: functional
T6 sequence (P41143 whole entry): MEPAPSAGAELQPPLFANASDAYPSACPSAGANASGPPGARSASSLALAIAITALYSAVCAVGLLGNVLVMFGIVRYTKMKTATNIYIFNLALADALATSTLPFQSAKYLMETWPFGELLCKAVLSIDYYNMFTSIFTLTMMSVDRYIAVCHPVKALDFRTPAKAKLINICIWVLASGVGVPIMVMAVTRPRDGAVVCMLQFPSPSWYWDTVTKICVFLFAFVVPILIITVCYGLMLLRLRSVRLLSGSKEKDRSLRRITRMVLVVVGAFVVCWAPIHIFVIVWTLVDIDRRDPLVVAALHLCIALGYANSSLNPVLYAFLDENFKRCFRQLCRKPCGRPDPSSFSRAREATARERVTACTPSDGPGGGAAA

[17] = target: T5, Kappa-type opioid receptor; assay type: functional; remark: listed apart in the source
Mu-type opioid receptor = Mu-type opioid receptor (Homo sapiens, UniProt P35372); experiment: HTS Image-Based Screen for Agonists of the MOR Receptor. [Related pubchem assays (depositor defined):AID1777, AID1785, AID1786, AID2133]; assay type: functional;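 also: imaging of beta-arrestin GFP recruitment into spots after receptor activation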
Mu-type opioid receptor, sequence (P35372 whole entry): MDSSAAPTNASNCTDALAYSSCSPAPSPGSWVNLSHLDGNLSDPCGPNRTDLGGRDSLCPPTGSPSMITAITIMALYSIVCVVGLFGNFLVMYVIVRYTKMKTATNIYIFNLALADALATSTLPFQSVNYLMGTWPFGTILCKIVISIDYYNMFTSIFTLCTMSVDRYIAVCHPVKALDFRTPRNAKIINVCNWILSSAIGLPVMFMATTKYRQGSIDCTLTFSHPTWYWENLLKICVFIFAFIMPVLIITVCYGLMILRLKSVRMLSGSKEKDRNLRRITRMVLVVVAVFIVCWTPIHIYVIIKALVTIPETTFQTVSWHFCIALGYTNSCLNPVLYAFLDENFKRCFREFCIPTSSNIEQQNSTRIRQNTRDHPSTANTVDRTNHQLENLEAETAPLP

[18] = target: T6, Delta-type opioid receptor; experiment: HTS Image-Based Screen for Agonists of the DOR Receptor. [Related pubchem assays (depositor defined):AID1777, AID1786, AID2133]; assay type: functional
Beta-galactosidase = Beta-galactosidase (Escherichia coli, UniProt Q8VNN2); assay type: functional
Streptococcus = experiment: Group A Streptococcus viability loss, dose response, counter-screen for streptokinase expression inhibitor project, luminescence, BacTiterGlo (AID 1915); assay type: functional, organism-based;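 also: potency for reduction of bacterial viability or growth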
[19] = target: Voltage-gated inwardly rectifying potassium channel KCNH2 (Homo sapiens, UniProt Q12809); experiment: hERG protection from proarrhythmic block, potency, dose response, cell-based, thallium flux (AID 2121); assay type: ADME
Voltage-gated inwardly rectifying potassium channel KCNH2, sequence (Q12809 whole entry): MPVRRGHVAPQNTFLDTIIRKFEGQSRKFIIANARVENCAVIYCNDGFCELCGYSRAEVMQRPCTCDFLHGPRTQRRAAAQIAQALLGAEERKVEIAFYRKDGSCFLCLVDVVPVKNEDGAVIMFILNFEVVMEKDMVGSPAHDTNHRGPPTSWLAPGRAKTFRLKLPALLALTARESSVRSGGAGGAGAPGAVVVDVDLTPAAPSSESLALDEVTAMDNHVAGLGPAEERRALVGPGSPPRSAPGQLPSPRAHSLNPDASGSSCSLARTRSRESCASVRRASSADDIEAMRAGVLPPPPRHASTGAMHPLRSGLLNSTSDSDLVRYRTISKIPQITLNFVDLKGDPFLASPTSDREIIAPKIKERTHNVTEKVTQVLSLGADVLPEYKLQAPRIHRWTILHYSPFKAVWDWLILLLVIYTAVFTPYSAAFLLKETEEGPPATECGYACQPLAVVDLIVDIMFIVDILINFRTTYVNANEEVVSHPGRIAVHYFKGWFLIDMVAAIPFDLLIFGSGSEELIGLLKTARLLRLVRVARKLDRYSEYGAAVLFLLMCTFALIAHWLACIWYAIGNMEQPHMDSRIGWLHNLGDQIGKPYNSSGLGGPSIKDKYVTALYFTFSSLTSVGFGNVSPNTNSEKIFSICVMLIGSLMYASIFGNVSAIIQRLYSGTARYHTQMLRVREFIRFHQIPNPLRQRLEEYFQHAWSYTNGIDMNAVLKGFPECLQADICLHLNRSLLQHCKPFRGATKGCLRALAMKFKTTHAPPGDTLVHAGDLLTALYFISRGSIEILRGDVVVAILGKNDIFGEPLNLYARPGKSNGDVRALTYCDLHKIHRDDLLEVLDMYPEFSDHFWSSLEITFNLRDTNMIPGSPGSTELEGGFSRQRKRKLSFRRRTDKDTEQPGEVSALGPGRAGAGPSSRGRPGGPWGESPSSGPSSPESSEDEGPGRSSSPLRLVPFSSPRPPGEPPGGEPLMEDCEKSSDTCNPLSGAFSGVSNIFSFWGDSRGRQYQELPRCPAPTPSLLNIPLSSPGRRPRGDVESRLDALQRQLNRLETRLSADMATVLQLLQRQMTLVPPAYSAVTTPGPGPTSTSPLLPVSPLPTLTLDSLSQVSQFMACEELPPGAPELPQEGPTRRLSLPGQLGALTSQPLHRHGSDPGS

[20] = Luminescence Cell-Based Dose Retest to Confirm Inhibitors of Cancer Stem Cells. [Related pubchem assays (depositor defined):AID2717, AID2721]; assay type: functional; conditions: Homo sapiens
[21] = target: T7, Heat shock factor protein 1 (Mus musculus, UniProt P38532); experiment: inhibition of MG132-induced HSE-luciferase signal, confirmation, cell-based, NIH3T3, luminescence, dose retest (AID 2382); assay type: functional;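 also: NIH3T3 fibroblasts with HSF1-driven luciferase reporter stressed by proteasome inhibitor MG132; luminescence from HSF1-driven luciferase expression after 8 hours of MG132 stress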
T7 sequence (P38532 whole entry): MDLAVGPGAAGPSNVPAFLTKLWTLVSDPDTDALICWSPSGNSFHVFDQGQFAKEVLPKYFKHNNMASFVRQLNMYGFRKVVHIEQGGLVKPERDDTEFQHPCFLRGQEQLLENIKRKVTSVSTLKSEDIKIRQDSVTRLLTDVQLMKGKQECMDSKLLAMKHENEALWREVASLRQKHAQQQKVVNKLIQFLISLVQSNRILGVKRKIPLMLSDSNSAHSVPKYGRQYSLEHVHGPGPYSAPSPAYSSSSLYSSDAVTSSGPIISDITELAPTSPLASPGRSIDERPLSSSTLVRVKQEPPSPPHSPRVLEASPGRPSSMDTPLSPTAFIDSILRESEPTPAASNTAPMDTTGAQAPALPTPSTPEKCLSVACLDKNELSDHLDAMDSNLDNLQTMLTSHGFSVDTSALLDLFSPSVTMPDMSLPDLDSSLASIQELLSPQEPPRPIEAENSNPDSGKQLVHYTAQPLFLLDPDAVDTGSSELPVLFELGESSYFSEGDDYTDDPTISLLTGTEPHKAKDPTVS

[22] = mammalian cell cytotoxicity, dose response, cytotoxicity control, plate reader, cherry-pick samples (AID 504397); assay type: functional, cell-based

T1 sequence (Q9HC97 whole entry): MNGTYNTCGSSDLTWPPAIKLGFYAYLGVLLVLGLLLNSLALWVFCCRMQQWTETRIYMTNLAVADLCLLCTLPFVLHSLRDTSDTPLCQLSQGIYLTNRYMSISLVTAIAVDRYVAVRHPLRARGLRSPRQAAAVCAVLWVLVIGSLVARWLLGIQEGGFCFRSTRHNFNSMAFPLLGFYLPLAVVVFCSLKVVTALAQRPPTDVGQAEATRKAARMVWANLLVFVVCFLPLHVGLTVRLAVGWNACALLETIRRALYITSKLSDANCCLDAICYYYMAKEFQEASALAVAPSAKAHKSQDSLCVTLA

CC(C)(C)NS(=O)(=O)c1ccc(NC(=O)C(Sc2ccccc2)c2ccccc2)cc1 (configuration not stated)
IC50 [1]: > 32 µM (inactive) | EC50 [2]: > 32 µM (inactive) | IC50 [3]: 0.978 µM (active) | EC50 (Cannabinoid receptor 1 [4]): > 32 µM (inactive) | IC50 (Cannabinoid receptor 1 [5]): 2.71 µM (active) | CC50 [6]: 27.1 µM (active) | EC50 [7]: 14.7 µM (active) | AC50 (Cytochrome P450 2C9): 2 µM (inconclusive) | IC50 (Cannabinoid receptor 2 [8]): > 32 µM (inactive) | IC50 [9]: 0.678 µM (active) | EC50 [10]: > 60 µM (not active) | EC50 [11]: 14.5 µM (active) | EC50 (Cannabinoid receptor 2 [12]): > 32 µM (inactive) | EC50 [13]: 2.31 µM (active)

COc1ccc(/C=C2\SC(=N)N(c3nccs3)C2=O)cc1OC
EC50 [14]: 1.69 µM (active) | IC50 [15]: > 32 µM | IC50 [16]: > 32 µM (inactive) | IC50 [17]: 7.22 µM (active) | EC50 (Mu-type opioid receptor): > 32 µM (inactive) | EC50 [18]: > 32 µM (inactive) | EC50 (Beta-galactosidase): > 31.5 µM (inactive) | EC50 (Streptococcus): 3.61 µM (active) | EC50 [13]: 3.66 µM (active) | EC50 [19]: 84.7 µM (active)

c1ccc(CNc2nc(N3CCN(Cc4ccccc4)CC3)nc3ccccc23)cc1
AC50 [20]: 3.43 µM (active) | EC50 [21]: > 195 µM (not active) | AC50 [22]: 66.2 µM (active)
